Patent US20070254894A1, “Novel small molecules with selective cytotoxicity against human microvascular endothelial cell proliferation” (priority 2006, published 2007)
Like-named read-outs stand apart in the source and are kept apart here.

What was measured:
[1] = system: Primary Human Dermal Fibroblasts; assay: in vitro; conditions: read-out: D. Fibroblast LC50; 6 days, Alamar blue
Method: (§1) In parallel with the VEGF and FGF screens, a normal cell toxicity assay was run. Primary Human Dermal Fibroblasts (Clonetics) were plated at 5000 cells/well. After 24 hours various concentrations of test compounds, were added in duplicate plates and 10% Tween-20 was added to four control wells to represent total death. At the same time a T-zero plate was generated. The plates were returned to the carbon dioxide incubator and on day 6 Alamar blue was added and the plates read after 3 hours.
(§2) Using a T-zero plate allows the observation of compounds that cause the cells to become static as well as inhibit growth.

[2] = system: HMVEC cells stimulated with VEGF 165; assay: VEGF driven HMVEC proliferation screen; assay type: cell-based
Method: (§3) HMVEC cells were plated on collagen-coated plates at 2500 cells/well for 24 hours. Various concentrations of test compounds were then added to duplicate plates. […] Anti-FGF antibody (final concentration of 5 μg/mL) was added to four control wells as a standard inhibitor. At the same time the compounds were added, a T-zero plate was generated (Alamar blue was added to a plate and read after three hours). The plates with the compounds were incubated for one hour at 37° C., 5% carbon dioxide. At this point, b-FGF was added (final concentration of 2.5 ng/mL). Tween-20 (10 μL) was added to four additional control wells to represent total death and the plates were returned to the carbon dioxide incubator for 6 days.
The assay was run identically using VEGF in place of b-FGF. The final concentration of VEGF 165, in this mode, was 10 ng/mL. The control inhibitor was anti-VEGF antibody (final concentration of […]). All other conditions were the same.

[3] = system: HMVEC cells stimulated with b-FGF; assay: b-FGF driven HMVEC proliferation screen; assay type: cell-based
Method: as §3

[4] = system: retinal neovascularization; assay: Mouse model of oxygen induced retinopathy (OIR), intravitreal administration; assay type: in vivo, C57BL/6 mouse; conditions: for amount of neovascularization: intravitreal once on day 12, 30 mg/ml, eyes examined day 17, versus controls; for pupils of treated animals: for the duration of the study
Method: Seven day old neonatal C57BL/6 mouse pups and their nursing dam were placed in an isobaric chamber that maintains a 75% oxygen level. The pups were returned to a normoxic environment at 12 days of age. The test articles and vehicle controls were administered intravitreally (once on day 12). Approximately one half of the pups from each litter were injected, the remaining pups were used as controls. Pups were euthanized on day 17 and their left/treated eye is processed for histological sectioning. […] The degree of neovascularization was measured by examining serial sections of the eye taken at 100 micron intervals. The numbers of endothelial nuclei that were internal but contiguous to the inner limiting membrane were counted. The number of nuclei from test article treated animals was compared with those counted in control animals. [table]

in vitro = conditions: human, primary human dermal fibroblasts, D. Fibroblast LC50, 6 days, Alamar blue
Method: as §1, §2

With O=C(Nc1ccc(N2CCOCC2)c2cccnc12)c1ccccn1 [Compound 9] as the molecule, how does the CC50 [1] read?
Its CC50 is > 10000 nM.

What about the CC50 [2] of the same molecule?
Its CC50 is 35 nM.

What about the CC50 [3] of the same molecule?
The CC50 was 37 nM.

And the amount of neovascularization [4]?
Its amount of neovascularization is “a decrease in the amount of neovascularization”.

And the “effect on neovascularization, Compound 9 compared with Compound 98” value ([4]; intravitreal, 30 mg/ml, FIG. 1 and FIG. 2)?
The value was “A greater effect”.

And the “pupils of treated animals” value ([4]; intravitreal)?
Its value is “markedly dilated”.

With CN1CCN(c2ccc(NC(=O)c3ccccn3)c3ncccc23)CC1 [Compound 98] as the molecule, how does the CC50 at 6 days (in vitro) read?
Its CC50 at 6 days is > 10000 nM.

And the CC50 ([2]; Homo sapiens, HMVEC, 144 h, VEGF 165 10 ng/mL, 6 days, Alamar blue, read-out: VEGF LC50)?
The CC50 was 33 nM.

And the CC50 ([3]; Homo sapiens, HMVEC, 144 h, b-FGF 2.5 ng/mL, 6 days, Alamar blue, read-out: b-FGF LC50)?
Its CC50 is 36 nM.

What about the amount of neovascularization [4] of the same molecule?
The amount of neovascularization was “a decrease in the amount of neovascularization”.

And the “pupils of treated animals” value ([4]; intravitreal)?
The value was “markedly dilated”.
